Measured values reported in patent US7998989B2, “2-Imino-1,3-thiazoline-based compounds and T-type calcium channel inhibitors containing the same” (Korea Institute of Science and Technology, priority 2007, dated 2011).
Where two headings read alike, the source gives them in different places.

Tests used:
[1] = target: T1, α1G T-type calcium channel (Homo sapiens, UniProt O43497); assay: Assay for % inhibiting activity against T-type calcium channel using FDSS6000 (fluo-3 calcium imaging, KCl activation); assay type: cell-based
T1 construct: host or cells: HEK293
Experimental: In the present invention, in order to examine an efficient inhibitor against the T-type calcium channel, a primary assay for T-type calcium channel inhibiting activity was conducted by a high-efficient assay using FDSS6000, wherein mammal HEK293 cell lines (originated from human kidney carcinoma cells) that specifically express α1G of the T-type calcium channel was used for primary assay. Through the primary assay, compounds that show meaningful inhibition effects were selected. The selected compounds were used in a second assay for T-type calcium channel inhibiting activity using an electrophysiological whole cell patch clamp method, wherein mammal HEK293 cell lines (originated from human kidney carcinoma cells) that specifically express α1G of the T-type calcium channel was used for the second assay. Mibefradil, which had been developed as a T-type calcium channel inhibitor, was used as a reference.
At 12-24 hours before being used for this assay, cells of HEK293 cell line (α1G cell line: KCTC 10519BP, Korean Collection for Type Cultures), which stably express α1G T-type calcium channel and Kir2.1, were sub-cultured in a poly-L-lysine treated 96-well plate with the density of 4×10^4 per well using a 96-well cell dispenser (Titertek). On the day of assay, the 96-well plate to which the cells were attached was washed three times with HEPES buffer solution (150 mM of NaCl, 5 mM of KCl, 1 mM of MgCl2, 2 mM of CaCl2, 10 mM of HEPES, 10 mM of glucose; pH 7.4) using a 96-well plate automatic washing device (Bio Tek), then reacted with HEPES buffer solution containing 5 μM fluo-3/AM and 0.001% Pluronic F-127 at room temperature for 1 hour, to label with fluorescent dye, and then further washed two times with HEPES buffer solution.
Thereafter, at 10 minutes before the measurement using device FDSS6000, washing with HEPES buffer solution containing 10 mM CaCl2 was conducted once more, and the final volume was adjusted to 81 μl. Besides the above 96-well plate containing the cells, two additional drug 96-well plates were provided, wherein the 96-well plates contained an inhibiting drug and KCl (final concentration: 75 mM) for activating the T-type calcium channel, respectively. Since most of cell-based HTS devices are equipped with a liquid application system for injection of drug, but have no liquid sucking system, the inhibiting drug to be tested and KCl were respectively provided at a five-times higher concentration in 10 mM CaCl2 HEPES buffer solution at the amount of 27 μl, diluted by five-times at the final cell plate volume of 135 μl, and then used in this test. The concrete method of measurement using FDSS6000 was as follows. After recording the reference value of 20 seconds, the change of intracellular Ca^2+ concentration that was induced by treatment of the inhibiting drug to be tested for 75 seconds followed by administration of KCl was measured, wherein the percentage (%) inhibition effect of the test drug, through estimating the area of ratio value of 340/380 in the control without treatment of the test drug, was 100%. As a reference drug, 10 μM mibefradil was used.
For accurate calcium imaging, the light source of 4 xenon lamps in FDSS6000 were radiated to selectively expose the cells to the excitation wavelength (340 nm and 380 nm) by a computer-controlled filter wheel. Data was obtained at intervals of 1.23 seconds. The emitter fluorescence light inflowed through a long-pass filter was obtained as an average 340/380 ratio value for each well in the 96-wells by using a CCD camera and a digital fluorescence analyzer in FDSS6000. All image data and analyses were obtained by using a FDSS6000-exclusive program from Hamamatsu Photonics.
The obtained results are shown in Table 2 (the results from the compounds according to the examples of the present invention) and Table 3 (the results from the compounds according to the comparative example where R6 is a phenyl group) [FDSS (% inhibition) 10 μM].

[2] = 10 μM, FDSS (% inhibition), comparative compounds where R6 is a phenyl group, read-out: FDSS
[3] = HEK293, 10 μM, HEK293 cells stably expressing α1G T-type calcium channel and Kir2.1, compounds of the examples, read-out: FDSS (% inhibition)/10uM

T1 sequence (O43497 whole entry): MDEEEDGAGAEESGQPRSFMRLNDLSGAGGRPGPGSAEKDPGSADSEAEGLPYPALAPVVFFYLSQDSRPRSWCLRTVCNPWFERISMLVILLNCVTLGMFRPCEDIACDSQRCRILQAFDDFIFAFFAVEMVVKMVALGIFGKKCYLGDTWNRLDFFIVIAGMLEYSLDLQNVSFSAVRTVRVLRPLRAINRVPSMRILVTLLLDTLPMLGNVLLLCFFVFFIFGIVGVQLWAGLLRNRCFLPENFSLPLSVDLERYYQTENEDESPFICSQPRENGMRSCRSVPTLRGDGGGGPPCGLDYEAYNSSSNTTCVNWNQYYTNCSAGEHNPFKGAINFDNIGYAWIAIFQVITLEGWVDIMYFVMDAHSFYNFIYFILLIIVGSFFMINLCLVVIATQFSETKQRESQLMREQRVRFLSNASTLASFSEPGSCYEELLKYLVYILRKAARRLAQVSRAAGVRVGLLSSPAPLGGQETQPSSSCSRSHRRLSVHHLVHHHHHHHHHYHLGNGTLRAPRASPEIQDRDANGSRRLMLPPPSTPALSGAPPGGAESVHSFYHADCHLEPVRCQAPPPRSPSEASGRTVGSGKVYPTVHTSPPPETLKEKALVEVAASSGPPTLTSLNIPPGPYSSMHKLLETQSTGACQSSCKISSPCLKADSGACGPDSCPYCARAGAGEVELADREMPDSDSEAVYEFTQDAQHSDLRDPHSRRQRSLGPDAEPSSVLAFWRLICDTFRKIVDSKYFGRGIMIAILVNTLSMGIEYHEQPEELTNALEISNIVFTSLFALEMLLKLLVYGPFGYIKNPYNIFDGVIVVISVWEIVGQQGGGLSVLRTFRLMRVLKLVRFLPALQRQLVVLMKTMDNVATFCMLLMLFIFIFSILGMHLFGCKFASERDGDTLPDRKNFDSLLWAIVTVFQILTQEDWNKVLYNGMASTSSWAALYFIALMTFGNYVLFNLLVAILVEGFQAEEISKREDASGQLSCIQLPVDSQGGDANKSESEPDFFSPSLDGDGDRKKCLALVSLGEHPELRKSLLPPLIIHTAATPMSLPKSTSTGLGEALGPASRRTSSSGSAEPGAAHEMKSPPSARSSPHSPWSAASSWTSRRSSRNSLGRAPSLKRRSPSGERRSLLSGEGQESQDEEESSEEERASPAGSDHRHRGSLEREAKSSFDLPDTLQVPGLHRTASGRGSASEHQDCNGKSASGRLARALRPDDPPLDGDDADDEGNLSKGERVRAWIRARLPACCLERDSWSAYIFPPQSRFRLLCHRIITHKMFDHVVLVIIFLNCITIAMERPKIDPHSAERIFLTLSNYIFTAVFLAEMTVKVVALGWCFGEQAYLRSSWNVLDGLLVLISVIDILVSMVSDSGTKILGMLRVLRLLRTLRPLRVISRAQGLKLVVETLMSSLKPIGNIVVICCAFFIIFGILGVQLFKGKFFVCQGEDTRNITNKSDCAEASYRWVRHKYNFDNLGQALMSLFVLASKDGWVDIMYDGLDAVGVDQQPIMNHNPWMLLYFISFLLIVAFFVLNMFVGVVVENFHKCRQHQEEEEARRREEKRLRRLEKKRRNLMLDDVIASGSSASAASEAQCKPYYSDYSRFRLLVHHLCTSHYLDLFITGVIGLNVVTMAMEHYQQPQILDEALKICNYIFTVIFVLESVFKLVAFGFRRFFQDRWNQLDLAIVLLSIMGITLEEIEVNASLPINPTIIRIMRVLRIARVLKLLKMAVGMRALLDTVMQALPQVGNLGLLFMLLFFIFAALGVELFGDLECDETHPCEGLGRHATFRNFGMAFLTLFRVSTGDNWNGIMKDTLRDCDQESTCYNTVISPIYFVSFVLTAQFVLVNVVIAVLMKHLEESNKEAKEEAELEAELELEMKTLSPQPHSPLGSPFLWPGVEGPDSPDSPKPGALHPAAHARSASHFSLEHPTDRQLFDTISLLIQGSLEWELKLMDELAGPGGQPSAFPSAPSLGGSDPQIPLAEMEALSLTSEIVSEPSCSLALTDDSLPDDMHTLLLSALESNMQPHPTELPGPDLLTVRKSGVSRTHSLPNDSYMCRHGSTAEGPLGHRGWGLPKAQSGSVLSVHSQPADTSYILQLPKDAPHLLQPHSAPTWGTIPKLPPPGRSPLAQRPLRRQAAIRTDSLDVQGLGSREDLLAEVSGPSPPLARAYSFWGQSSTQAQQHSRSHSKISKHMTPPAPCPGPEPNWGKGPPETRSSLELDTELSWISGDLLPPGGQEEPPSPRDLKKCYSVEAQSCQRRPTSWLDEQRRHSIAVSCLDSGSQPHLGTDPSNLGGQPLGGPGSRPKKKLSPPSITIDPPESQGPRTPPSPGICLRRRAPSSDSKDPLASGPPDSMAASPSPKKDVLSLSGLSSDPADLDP

Row | Compound | inhibition at 10 µM [1, 2] [%] | melting point [°C] | inhibition at 10 µM [1, 3] [%]
1 | CN1C(=Nc2ccc(Oc3ccccc3)cc2)SCC1CC(=O)Nc1ccc(Cl)cc1.Cl (stereo not shown) [KHG21650, [2-(4-phenoxyphenylimino)-3-methyl-1,3-thiazolidine-4-yl]-N-(4-chlorophenyl)-acetamide hydrochloride] | 2.59 | 238 to 242 | 
2 | CN1C(=Nc2ccc(Cl)cc2)SCC1CC(=O)Nc1ccc(Cl)cc1.Cl (stereo not shown) [KHG21652, [2-(4-chlorophenylimino)-3-methyl-1,3-thiazolidine-4-yl]-N-(4-chlorophenyl)-acetamide hydrochloride] | -7.7 | 239 to 242 | 
3 | CC(C)Oc1cccc(N=C2SCC(CC(=O)Nc3ccc(Cl)cc3)N2C)c1.Cl (stereo not shown) [KHG21653, [2-(3-isopropoxyphenylimino)-3-methyl-1,3-thiazolidine-4-yl]-N-(4-chlorophenyl)-acetamide hydrochloride] | -2.17 | 201 to 203 | 
4 | CCCCc1ccc(N=C2SCC(CC(=O)Nc3ccc(Cl)cc3)N2C)cc1.Cl (stereo not shown) [KHG21654, [2-(4-n-butylphenylimino)-3-methyl-1,3-thiazolidine-4-yl]-N-(4-chlorophenyl)-acetamide hydrochloride] | -1.13 | 239 to 241 | 
5 | CN1C(=Nc2cccc([N+](=O)[O-])c2)SCC1CC(=O)Nc1ccc(Cl)cc1.Cl (stereo not shown) [KHG21655, [2-(3-nitrophenylimino)-3-methyl-1,3-thiazolidine-4-yl]-N-(4-chlorophenyl)-acetamide hydrochloride] | 4.68 | 228 | 
6 | CC(C)c1ccc(NC(=O)CC2CSC(=Nc3ccc(C(F)(F)F)cc3)N2C)cc1.Cl (stereo not shown) [KHG21943, [2-(4-trifluoromethylphenylimino)-3-methyl-1,3-thiazolidine-4-yl]-N-(4-isopropylphenyl)-acetamide hydrochloride] | -2.56 | 238 to 242.8 | 
7 | CC(C)Oc1cc(N=C2SCC(CC(=O)Nc3ccc(C(C)C)cc3)N2C)c(F)cc1Cl.Cl (stereo not shown) [KHG21944, [2-(4-chloro-5-isopropoxy-2-fluorophenylimino)-3-methyl-1,3-thiazolidine-4-yl]-N-(4-isopropylphenyl)-acetamide hydrochloride] | 5.89 | 190 to 194 | 
8 | CC(C)c1ccc(NC(=O)CC2CSC(=Nc3ccc(C#N)cc3)N2C)cc1.Cl (stereo not shown) [KHG21945, [2-(4-cyanophenylimino)-3-methyl-1,3-thiazolidine-4-yl]-N-(4-isopropylphenyl)-acetamide hydrochloride] | 7.71 | 234 to 235 | 
9 | CC(C)c1ccc(NC(=O)CC2CSC(=Nc3ccc(F)c(Cl)c3)N2C)cc1.Cl (stereo not shown) [KHG21947, [2-(3-chloro-4-fluorophenylimino)-3-methyl-1,3-thiazolidine-4-yl]-N-(4-isopropylphenyl)-acetamide hydrochloride] | 23.9 | 239 to 241 | 
10 | CC(C)c1ccc(NC(=O)CC2CSC(=Nc3cccc(Br)c3)N2C)cc1.Cl (stereo not shown) [KHG21949, [2-(3-bromophenylimino)-3-methyl-1,3-thiazolidine-4-yl]-N-(4-isopropylphenyl)-acetamide hydrochloride] | 5.41 | 198 to 201 | 
11 | CN1C(=Nc2ccc(Cl)cc2)SCC1CC(=O)Nc1ccc(Cl)cc1F.Cl (stereo not shown) [KHG23064, [2-(4-chlorophenylimino)-3-methyl-1,3-thiazolidine-4-yl]-N-(4-chloro-2-fluorophenyl)-acetamide hydrochloride] | 7.37 | 239 to 240 | 
12 | CN1C(=Nc2ccc(Br)cc2)SCC1CC(=O)Nc1ccc(Cl)cc1F.Cl (stereo not shown) [KHG23065, [2-(4-bromophenylimino)-3-methyl-1,3-thiazolidine-4-yl]-N-(4-chloro-2-fluorophenyl)-acetamide hydrochloride] | 3.57 | 239 to 240 | 
13 | CCCCc1ccc(N=C2SCC(CC(=O)Nc3ccc(Cl)cc3F)N2C)cc1.Cl (stereo not shown) [KHG23066, [2-(4-n-butylphenylimino)-3-methyl-1,3-thiazolidine-4-yl]-N-(4-chloro-2-fluorophenyl)-acetamide hydrochloride] | 1.3 | 223 to 224 | 
14 | CN1C(=Nc2ccc(C#N)cc2)SCC1CC(=O)Nc1ccc(Cl)cc1F.Cl (stereo not shown) [KHG23067, [2-(4-cyanophenylimino)-3-methyl-1,3-thiazolidine-4-yl]-N-(4-chloro-2-fluorophenyl)-acetamide hydrochloride] | -2.73 | 136 to 137 | 
15 | CN1C(=Nc2ccc(C(F)(F)F)cc2)SCC1CC(=O)Nc1ccc(Cl)cc1F.Cl (stereo not shown) [KHG23068, [2-(4-trifluoromethylphenylimino)-3-methyl-1,3-thiazolidine-4-yl]-N-(4-chloro-2-fluorophenyl)-acetamide hydrochloride] | 5.76 | 222 to 223 | 
16 | Cc1ccc(N=C2SCC(CC(=O)Nc3ccc(Cl)cc3F)N2C)cc1.Cl (stereo not shown) [KHG23069, [2-(4-methylphenylimino)-3-methyl-1,3-thiazolidine-4-yl]-N-(4-chloro-2-fluorophenyl)-acetamide hydrochloride] | 4.33 | 243 to 245 | 
17 | CN1C(=Nc2ccc(OC(F)(F)F)cc2)SCC1CC(=O)Nc1ccc(Cl)cc1F.Cl (stereo not shown) [KHG23070, [2-(4-trifluoromethoxyphenylimino)-3-methyl-1,3-thiazolidine-4-yl]-N-(4-chloro-2-fluorophenyl)-acetamide hydrochloride] | 7.44 | 236 to 237 | 
18 | CC(C)c1ccc(N=C2SCC(CC(=O)Nc3ccc(Cl)cc3F)N2C)cc1.Cl (stereo not shown) [KHG23071, [2-(4-isopropylphenylimino)-3-methyl-1,3-thiazolidine-4-yl]-N-(4-chloro-2-fluorophenyl)-acetamide hydrochloride] | 15.5 | 237 to 238 | 
19 | CCc1ccc(N=C2SCC(CC(=O)Nc3ccc(Cl)cc3F)N2C)cc1.Cl (stereo not shown) [KHG23072, [2-(4-ethylphenylimino)-3-methyl-1,3-thiazolidine-4-yl]-N-(4-chloro-2-fluorophenyl)-acetamide hydrochloride] | 29.4 | 242 | 
20 | CN1C(=Nc2ccc(-c3ccccc3)cc2)SCC1CC(=O)Nc1ccc(Cl)cc1F.Cl (stereo not shown) [KHG23073, [2-(4-phenylphenylimino)-3-methyl-1,3-thiazolidine-4-yl]-N-(4-chloro-2-fluorophenyl)-acetamide hydrochloride] | 28.3 | 222 to 223 | 
21 | COc1ccc(NC(=O)CC2CSC(=NC3CCCCC3)N2C)cc1Cl.Cl (stereo not shown) [KHG24070, (2-cyclohexylimino-3-methyl-1,3-thiazolidine-4-yl)-N-(3-chloro-4-methoxyphenyl)-acetamide hydrochloride] |  | 233.5 to 235 | 53
22 | Cc1cc(Cl)c(NC(=O)CC2CSC(=NC3CCCCC3)N2C)cc1Cl.Cl (stereo not shown) [KHG24071, (2-cyclohexylimino-3-methyl-1,3-thiazolidine-4-yl)-N-(2,5-dichloro-4-methylphenyl)-acetamide hydrochloride] |  | 146 | 52.1
23 | CN1C(=NC2CCCCC2)SCC1CC(=O)Nc1ccc(C(C)(C)C)cc1.Cl (stereo not shown) [KHG24073, (2-cyclohexylimino-3-methyl-1,3-thiazolidine-4-yl)-N-(4-t-butylphenyl)-acetamide hydrochloride] |  | 234 to 235.5 | 57.3
